The target of assay [1] is Serine/threonine-protein kinase B-raf (Homo sapiens, UniProt P15056).
Description: Inhibition of human recombinant full-length GST-tagged B-Raf by radiometric kinase assay
Assay [2] has as its target Tyrosine-protein kinase ABL1 (Mus musculus, UniProt P00520).
Description: Inhibition of mouse recombinant N-terminal His6-tagged Abl by radiometric kinase assay
In assay [3] the target is Mitogen-activated protein kinase 14 (Homo sapiens, UniProt Q16539). Put plainly: Inhibition of human recombinant full-length N-terminal GST-tagged p38alpha expressed in Escherichia coli by radiometric kinase assay.

Some results are limits rather than exact numbers.

Serine/threonine-protein kinase B-raf, sequence (P15056 whole entry): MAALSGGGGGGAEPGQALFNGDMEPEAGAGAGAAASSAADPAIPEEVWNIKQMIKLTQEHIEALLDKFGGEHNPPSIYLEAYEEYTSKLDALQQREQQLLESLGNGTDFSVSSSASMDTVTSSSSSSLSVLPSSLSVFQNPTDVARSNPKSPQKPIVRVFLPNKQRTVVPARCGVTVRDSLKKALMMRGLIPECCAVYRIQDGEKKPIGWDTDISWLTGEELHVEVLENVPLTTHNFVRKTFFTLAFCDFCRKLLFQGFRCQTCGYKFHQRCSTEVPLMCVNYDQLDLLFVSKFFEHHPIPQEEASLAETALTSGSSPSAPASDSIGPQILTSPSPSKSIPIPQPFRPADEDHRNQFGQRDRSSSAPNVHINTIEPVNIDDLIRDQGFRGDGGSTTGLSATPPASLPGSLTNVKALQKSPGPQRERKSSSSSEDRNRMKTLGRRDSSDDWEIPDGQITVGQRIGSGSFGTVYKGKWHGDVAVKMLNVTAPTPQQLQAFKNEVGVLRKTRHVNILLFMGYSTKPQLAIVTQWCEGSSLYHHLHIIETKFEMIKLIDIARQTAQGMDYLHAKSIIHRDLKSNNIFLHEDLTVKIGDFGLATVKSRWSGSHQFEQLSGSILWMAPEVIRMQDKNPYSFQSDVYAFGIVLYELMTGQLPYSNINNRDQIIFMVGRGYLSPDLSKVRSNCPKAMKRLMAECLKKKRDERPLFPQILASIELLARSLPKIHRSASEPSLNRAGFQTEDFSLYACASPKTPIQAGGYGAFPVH
Mitogen-activated protein kinase 14, sequence (Q16539 whole entry): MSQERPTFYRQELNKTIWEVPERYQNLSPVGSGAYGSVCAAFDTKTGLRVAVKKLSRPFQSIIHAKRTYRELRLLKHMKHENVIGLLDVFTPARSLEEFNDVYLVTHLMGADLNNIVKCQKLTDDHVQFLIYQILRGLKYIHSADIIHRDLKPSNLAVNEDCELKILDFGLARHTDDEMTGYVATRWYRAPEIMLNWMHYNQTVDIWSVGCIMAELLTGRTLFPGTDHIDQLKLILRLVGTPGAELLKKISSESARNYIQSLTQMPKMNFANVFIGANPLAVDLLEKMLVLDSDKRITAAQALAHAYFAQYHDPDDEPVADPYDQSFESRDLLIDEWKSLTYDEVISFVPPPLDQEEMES
Tyrosine-protein kinase ABL1, sequence (P00520 whole entry): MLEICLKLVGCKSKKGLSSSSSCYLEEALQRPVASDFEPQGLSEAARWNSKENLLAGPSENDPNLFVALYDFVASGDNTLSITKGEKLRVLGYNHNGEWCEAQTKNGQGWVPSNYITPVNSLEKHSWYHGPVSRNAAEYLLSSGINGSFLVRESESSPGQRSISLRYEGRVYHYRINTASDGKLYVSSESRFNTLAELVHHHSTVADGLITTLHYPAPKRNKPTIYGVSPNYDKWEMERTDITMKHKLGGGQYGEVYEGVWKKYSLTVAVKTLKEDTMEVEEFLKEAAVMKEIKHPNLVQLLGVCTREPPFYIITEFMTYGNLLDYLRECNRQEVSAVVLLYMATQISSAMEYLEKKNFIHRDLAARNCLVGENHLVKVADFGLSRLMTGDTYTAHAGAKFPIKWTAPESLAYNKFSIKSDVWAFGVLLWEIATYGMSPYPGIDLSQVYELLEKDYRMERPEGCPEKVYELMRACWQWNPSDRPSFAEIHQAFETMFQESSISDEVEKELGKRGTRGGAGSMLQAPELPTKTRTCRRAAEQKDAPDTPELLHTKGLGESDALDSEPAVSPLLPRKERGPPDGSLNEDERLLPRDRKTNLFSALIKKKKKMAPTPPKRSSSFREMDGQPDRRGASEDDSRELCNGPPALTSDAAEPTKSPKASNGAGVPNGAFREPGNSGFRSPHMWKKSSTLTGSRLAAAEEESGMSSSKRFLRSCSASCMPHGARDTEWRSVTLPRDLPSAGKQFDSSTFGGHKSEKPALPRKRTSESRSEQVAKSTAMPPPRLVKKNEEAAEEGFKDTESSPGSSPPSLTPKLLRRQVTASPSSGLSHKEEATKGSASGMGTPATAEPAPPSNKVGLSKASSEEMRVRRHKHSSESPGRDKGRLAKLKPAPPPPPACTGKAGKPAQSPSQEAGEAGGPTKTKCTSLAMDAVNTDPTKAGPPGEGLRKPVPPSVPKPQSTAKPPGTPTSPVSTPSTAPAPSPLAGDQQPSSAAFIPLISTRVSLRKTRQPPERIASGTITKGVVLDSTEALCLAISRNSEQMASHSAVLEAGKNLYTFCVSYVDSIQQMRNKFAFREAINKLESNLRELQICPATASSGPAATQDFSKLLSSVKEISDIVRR

As for `CNC(=O)c1cc(Oc2ccc(NC(=O)c3ccc(CN4CCN(C)CC4)cc3)cc2)ccn1`, the IC50 (usually the concentration needed to halve the response being measured) in assay [1] was over 100 µM; in assay [2], over 30 µM; in assay [3], over 100 µM.
Turning to `CN1CCN(Cc2ccc(C(=O)Nc3ccc(OCCN4CCOCC4)c4ccccc34)cc2)CC1`, the IC50 in assay [1] was over 100 µM; in assay [2], over 30 µM; in assay [3], over 100 µM.
Take `Cc1ccc(NC(=O)Nc2ccc(Cl)c(C(F)(F)F)c2)cc1Nc1nccc(-c2cccnc2)n1`: the IC50 is 0.18 µM in assay [1], under 0.001 µM in assay [2] and 0.0184 µM in assay [3].
For `O=C(Nc1ccc(Cl)c(C(F)(F)F)c1)Nc1ccc(OCCN2CCOCC2)c2ccccc12`, the IC50 in assay [1] is under 0.001 µM; in assay [2] it was 12.9 µM.
Consider `Cc1ccc(-n2nc(C(C)(C)C)cc2NC(=O)Nc2ccc(C)c(Nc3nccc(-c4cccnc4)n3)c2)cc1`, for which the IC50 in assay [1] is 0.414 µM; in assay [2], 0.0086 µM; in assay [3], 0.189 µM.
As for `CNC(=O)c1cc(Oc2ccc(NC(=O)Nc3cc(C(C)(C)C)nn3-c3ccc(C)cc3)cc2)ccn1`, the IC50 was found to be 0.237 µM in assay [1] and 0.0626 µM in assay [2].
For `CNC(=O)c1cc(Oc2ccc(NC(=O)Nc3ccc(CN4CCN(C)CC4)cc3)cc2)ccn1`, the values for the IC50 in assay [1], in assay [2] and in assay [3] were over 100 µM, 0.572 µM and over 100 µM, respectively.
Take `O=C(Nc1ccc(OCCN2CCOCC2)cc1)Nc1ccc(Cl)c(C(F)(F)F)c1`: the IC50 was 0.0923 µM in assay [1], 0.244 µM in assay [2] and 0.105 µM in assay [3].

The record behind these values is ChEMBL document CHEMBL1212849, “The design, synthesis, and evaluation of 8 hybrid DFG-out allosteric kinase inhibitors: a structural analysis of the binding interactions of Gleevec, Nexavar, and BIRB-796” (Bioorg Med Chem, 2010).
